Measurements published in the NIST ThermoML archive (doi:10.1021/acs.jced.8b00403).

Columns and labels:
[1] = 101.33 kPa, Liquid; for viscosity: Concentric cylinders viscometry; for mass density: Vibrating tube method
[2] = refractive index (Na D-line) (dimensionless); details: 101.33 kPa, Liquid, Standard Abbe refractometry
[3] = refractive index (Na D-line) (dimensionless); wn = mass fraction of the nth substance listed; details: 101.33 kPa, Liquid, Standard Abbe refractometry, w2 = 0
[4] = wn = mass fraction of the nth substance listed; details: 101.33 kPa, Liquid, w2 = 0; for viscosity: Concentric cylinders viscometry; for mass density: Vibrating tube method

CC(O)CO (stereo unspecified) [1,2-propanediol]
Details	mass density, [1] [kg/m3]	refractive index, [2]	viscosity, [1] [mPa·s]
253.15 K	1065.8	–	1772.4
258.15 K	1062.2	–	1038.3
263.15 K	1058.6	–	631.08
268.15 K	1054.9	–	396.99
273.15 K	1051.3	–	258
278.15 K	–	1.438	–
283.15 K	1042.9	1.4364	116.68
288.15 K	–	1.4348	–
293.15 K	1035.5	1.4332	59.75
298.15 K	–	1.4315	–
303.15 K	1028.1	1.4299	33.26
308.15 K	–	1.4281	–
313.15 K	1020.6	1.4264	19.92
318.15 K	–	1.4247	–
323.15 K	1013	–	12.68
333.15 K	1005.3	–	8.498
343.15 K	997.7	–	5.95
353.15 K	989.5	–	4.332

OCCCO [propan-1,3-diol]
Details	mass density, [1] [kg/m3]	refractive index, [2]	viscosity, [1] [mPa·s]
253.15 K	1078.2	–	574.39
258.15 K	1075.4	–	409.88
263.15 K	1072.3	–	289.5
268.15 K	1069	–	207.88
273.15 K	1065.9	–	152.75
278.15 K	–	1.4436	–
283.15 K	1059.8	1.4423	86.48
288.15 K	–	1.4409	–
293.15 K	1053.6	1.4395	52.01
298.15 K	–	1.4381	–
303.15 K	1047.4	1.4368	32.92
308.15 K	–	1.4354	–
313.15 K	1041.1	1.434	21.79
318.15 K	–	1.4325	–
323.15 K	1034.8	–	15
333.15 K	1028.4	–	10.72
343.15 K	1021.9	–	7.855
353.15 K	1015.3	–	5.916

O [water]
Details	mass density, [1] [kg/m3]	refractive index, [2]	viscosity, [1] [mPa·s]
273.15 K	1000.8	–	1.825
278.15 K	–	1.3341	–
283.15 K	1000.6	1.3338	1.345
288.15 K	–	1.3335	–
293.15 K	999.3	1.3331	1.041
298.15 K	–	1.3326	–
303.15 K	996.8	1.332	0.8467
308.15 K	–	1.3313	–
313.15 K	993.2	1.3306	0.6997
318.15 K	–	1.3298	–
323.15 K	989	–	0.5967
333.15 K	984.4	–	0.5091
343.15 K	978.6	–	0.4355
353.15 K	972.7	–	0.3911

O [water] + CC(O)CO
Details	mass density, [4] [kg/m3]	refractive index, [3]	viscosity, [4] [mPa·s]
273.15 K	1000.8	–	1.825
278.15 K	–	1.3341	–
283.15 K	1000.6	1.3338	1.345
288.15 K	–	1.3335	–
293.15 K	999.3	1.3331	1.041
298.15 K	–	1.3326	–
303.15 K	996.8	1.332	0.8467
308.15 K	–	1.3313	–
313.15 K	993.2	1.3306	0.6997
318.15 K	–	1.3298	–
323.15 K	989	–	0.5967
333.15 K	984.4	–	0.5091
343.15 K	978.6	–	0.4355
353.15 K	972.7	–	0.3911

O [water] + OCCCO
Details	mass density, [4] [kg/m3]	refractive index, [3]	viscosity, [4] [mPa·s]
273.15 K	1000.8	–	1.825
278.15 K	–	1.3341	–
283.15 K	1000.6	1.3338	1.345
288.15 K	–	1.3335	–
293.15 K	999.3	1.3331	1.041
298.15 K	–	1.3326	–
303.15 K	996.8	1.332	0.8467
308.15 K	–	1.3313	–
313.15 K	993.2	1.3306	0.6997
318.15 K	–	1.3298	–
323.15 K	989	–	0.5967
333.15 K	984.4	–	0.5091
343.15 K	978.6	–	0.4355
353.15 K	972.7	–	0.3911
